# Reference: patent publication US8552220B2, “Therapeutic agent for Alzheimer's disease” (Tokyo Institute of Technology, priority 2008, dated 2013)
row,Structure (SMILES),melting point [°C]
1,"CN(C)CCOc1ccc(Br)c(/C=C/C(=O)CC(=O)/C=C/c2ccc(O)cc2)c1 [CU552, (1E,6E)-1-[2-bromo-5-(2-dimethylaminoethoxy)phenyl]-7-(4-hydroxyphenyl)hepta-1,6-diene-3,5-dione]",163 to 167
2,"O=C(/C=C/c1ccc(O)cc1)CC(=O)/C=C/c1ccc(Br)cc1F [CU471, (1E,6E)-1-(4-bromo-2-fluorophenyl)-7-(4-hydroxyphenyl)hepta-1,6-diene-3,5-dione]",223 to 232
3,"O=C(/C=C/c1ccc(O)cc1)CC(=O)/C=C/c1cc(O)ccc1-c1ccccc1 [CU526, (1E,6E)-1-(4-hydroxybiphenyl-2-yl)-7-(4-hydroxyphenyl)hepta-1,6-diene-3,5-dione]",179 to 186
4,"O=C(/C=C/c1cc(O)ccc1-c1ccccc1)CC(=O)CCc1ccc(O)cc1 [CU541, (E)-1-(4-hydroxybiphenyl-2-yl)-7-(4-hydroxyphenyl)hept-1-ene-3,5-dione]",148 to 158
5,O=C(/C=C/c1cc(O)ccc1[N+](=O)[O-])CC(=O)/C=C/c1cc(O)ccc1[N+](=O)[O-],253 to 262
6,"O=C(/C=C/c1ccc2cc[nH]c2c1)CC(=O)/C=C/c1cc(OCc2ccccc2)ccc1-c1ccccc1 [CU566, (1E,6E)-1-(4-benzyloxybiphenyl-2-yl)-7-(1H-indol-6-yl)hepta-1,6-diene-3,5-dione]",178 to 183
7,"CN(C)c1ccc(/C=C/C(=O)CC(=O)/C=C/c2ccc(O)cc2)c(C(F)(F)F)c1 [CU555, (1E,6E)-1-(4-dimethylamino-2-trifluoromethylphenyl)-7-(4-hydroxyphenyl)hepta-1,6-diene-3,5-dione]",195 to 199
8,"COc1ccc(/C=C/C(=O)CC(=O)/C=C/c2cc(O)ccc2[N+](=O)[O-])cc1O [CU133, (1E,6E)-1-(3-hydroxy-4-methoxyphenyl)-7-(5-hydroxy-2-nitrophenyl)hepta-1,6-diene-3,5-dione]",107 to 111
9,"O=C(/C=C/c1ccc2cc[nH]c2c1)CC(=O)/C=C/c1cc(O)ccc1Br [CU562, (1E,6E)-1-(2-bromo-5-hydroxyphenyl)-7-(1H-indol-6-yl)hepta-1,6-diene-3,5-dione]",196 to 200
10,"CCN(CC)c1ccc(/C=C/C(=O)CC(=O)/C=C/c2ccc(N(CC)CC)cc2OC(=O)c2ccccc2)c(OC(=O)c2ccccc2)c1 [CU427, (1E,6E)-1,7-bis(2-benzoyloxy-4-diethylaminophenyl)hepta-1,6-diene-3,5-dione]",192 to 196
11,"COc1cc(O)ccc1/C=C/C(=O)CC(=O)/C=C/c1cc(O)ccc1-c1ccccc1 [CU582, (1E,6E)-1-(4-hydroxybiphenyl-2-yl)-7-(4-hydroxy-2-methoxyphenyl)hepta-1,6-diene-3,5-dione]",108 to 114
12,"CN(C)c1ccc(/C=C/C(=O)CC(=O)CCc2ccc(O)cc2)c(C(F)(F)F)c1 [CU556, (E)-1-(4-dimethylamino-2-trifluoromethylphenyl)-7-(4-hydroxyphenyl)hept-1-ene-3,5-dione]",110 to 114
13,"O=C(/C=C/c1ccc(O)cc1)CC(=O)/C=C/c1ccccc1C(F)(F)F [CU467, (1E,6E)-1-(4-hydroxyphenyl)-7-(2-trifluoromethylphenyl)hepta-1,6-diene-3,5-dione]",181 to 185
14,"O=C(/C=C/c1cc(O)ccc1[N+](=O)[O-])CC(=O)CCc1ccc(O)cc1 [CU530, (E)-1-(5-hydroxy-2-nitrophenyl)-7-(4-hydroxyphenyl)hept-1-ene-3,5-dione]",62 to 70
15,"O=C(/C=C/c1ccc(O)cc1)CC(=O)/C=C/c1cc(Cl)ccc1[N+](=O)[O-] [CU465, (1E,6E)-1-(5-chloro-2-nitrophenyl)-7-(4-hydroxyphenyl)hepta-1,6-diene-3,5-dione]",241 to 250
16,"O=C(/C=C/c1cc(O)ccc1-c1cccc2ccccc12)CC(=O)CCc1ccc(O)cc1 [CU542, (E)-1-[5-hydroxy-2-(naphthalen-1-yl)phenyl]-7-(4-hydroxyphenyl)hept-1-ene-3,5-dione]",138 to 142
17,"CN(C)S(=O)(=O)c1ccccc1/C=C/C(=O)CC(=O)/C=C/c1ccc(O)cc1 [CU480, (1E,6E)-1-[2-(dimethylaminosulfonyl)phenyl]-7-(4-hydroxyphenyl)hepta-1,6-diene-3,5-dione]",86 to 90
18,"CN(C)c1ccc(/C=C/C(=O)CC(=O)/C=C/c2ccc(O)cc2)c([N+](=O)[O-])c1 [CU194, (1E,6E)-1-(4-dimethylamino-2-nitrophenyl)-7-(4-hydroxyphenyl)hepta-1,6-diene-3,5-dione]",217 to 222
19,"COc1cc(O)ccc1/C=C/C(=O)CC(=O)/C=C/c1ccccc1C(F)(F)F [CU574, (1E,6E)-1-(4-hydroxy-2-methoxyphenyl)-7-(2-trifluoromethylphenyl)hepta-1,6-diene-3,5-dione]",176 to 180
20,"O=C(/C=C/c1ccc(O)cc1)CC(=O)/C=C/c1ccccc1-c1ccc2ccccc2c1 [CU529, (1E,6E)-1-(4-hydroxyphenyl)-7-[2-(naphthalen-2-yl)phenyl]hepta-1,6-diene-3,5-dione]",105 to 114
21,"O=C(/C=C/c1ccc(O)cc1Cl)CC(=O)/C=C/c1ccc(O)cc1Cl [CU362, (1E,6E)-1,7-bis(2-chloro-4-hydroxyphenyl)hepta-1,6-diene-3,5-dione]",248 to 254
22,"O=C(/C=C/c1ccc(O)cc1)CC(=O)/C=C/c1ccc(O)cc1Cl [CU127, (1E,6E)-1-(2-chloro-4-hydroxyphenyl)-7-(4-hydroxyphenyl)hepta-1,6-diene-3,5-dione]",131 to 138
23,"O=C(/C=C/c1ccc(O)cc1)CC(=O)/C=C/c1ccccc1Br [CU486, (1E,6E)-1-(2-bromophenyl)-7-(4-hydroxyphenyl)hepta-1,6-diene-3,5-dione]",155 to 159
24,"O=C(/C=C/c1cc(O)ccc1Br)CC(=O)CCc1ccc(O)cc1 [CU549, (E)-1-(2-bromo-5-hydroxyphenyl)-7-(4-hydroxyphenyl)hept-1-ene-3,5-dione]",161 to 165
25,"O=C(/C=C/c1ccc(O)cc1)CC(=O)/C=C/c1cc(OCc2ccccc2)ccc1-c1ccccc1 [CU527, (1E,6E)-1-(4-benzyloxybiphenyl-2-yl)-7-(4-hydroxyphenyl)hepta-1,6-diene-3,5-dione]",172 to 178
26,"CS(=O)(=O)Oc1ccccc1/C=C/C(=O)CC(=O)/C=C/c1ccc(O)cc1 [CU483, (1E,6E)-1-(4-hydroxyphenyl)-7-[2-(methylsulfonyloxy)phenyl]hepta-1,6-diene-3,5-dione]",163 to 167

# Next, values leading:
row,melting point [°C],Structure (SMILES)
1,119 to 123,"COc1cc(O)ccc1/C=C/C(=O)CC(=O)/C=C/c1cc(O)ccc1[N+](=O)[O-] [CU585, (1E,6E)-1-(4-hydroxy-2-methoxyphenyl)-7-(5-hydroxy-2-nitrophenyl)hepta-1,6-diene-3,5-dione]"
2,215 to 218,"COc1cc(/C=C/C(=O)CC(=O)/C=C/c2ccc(O)cc2)c(Br)c(Br)c1O [CU652, (1E,6E)-1-(2,3-dibromo-4-hydroxy-5-methoxyphenyl)-7-(4-hydroxyphenyl)hepta-1,6-diene-3,5-dione]"
3,238 to 248,"O=C(/C=C/c1ccc(O)cc1)CC(=O)/C=C/c1ccc(N2CCCCC2)cc1Br [CU1090, (1E,6E)-1-[2-bromo-4-(piperidin-1-yl)phenyl]-7-(4-hydroxyphenyl)hepta-1,6-diene-3,5-dione]"
4,90 to 96,"COc1ccc(O)cc1/C=C/C(=O)CC(=O)/C=C/c1cc(O)ccc1Br [CU608, (1E,6E)-1-(2-bromo-5-hydroxyphenyl)-7-(5-hydroxy-2-methoxyphenyl)hepta-1,6-diene-3,5-dione]"
5,153 to 161,"[N-]=[N+]=Nc1ccccc1/C=C/C(=O)CC(=O)/C=C/c1ccc(O)cc1 [CU651, (1E,6E)-1-(2-azidophenyl)-7-(4-hydroxyphenyl)hepta-1,6-diene-3,5-dione]"
6,187 to 191,"O=C(/C=C/c1ccc(O)cc1)CC(=O)/C=C/c1cc(F)ccc1-c1ccccc1 [CU640, (1E,6E)-1-(4-fluorobiphenyl-2-yl)-7-(4-hydroxyphenyl)hepta-1,6-diene-3,5-dione]"
7,155 to 161,"O=C(/C=C/c1ccc(O)cc1)CC(=O)/C=C/c1ccc(N2CCC(Cc3ccccc3)CC2)cc1Br [CU1091, (1E,6E)-1-[4-(4-benzylpiperidin-1-yl)-2-bromophenyl]-7-(4-hydroxyphenyl)hepta-1,6-diene-3,5-dione]"
8,186 to 192,"O=C(/C=C/c1ccc(O)cc1)CC(=O)/C=C/c1ccccc1-n1cncn1 [CU623, (1E,6E)-1-[2-(1H-1,2,4-triazol-1-yl)phenyl]-7-(4-hydroxyphenyl)hepta-1,6-diene-3,5-dione]"
9,223 to 226,"COc1cc(O)ccc1/C=C/C(=O)CC(=O)/C=C/c1ccc(N(C)C)cc1[N+](=O)[O-] [CU603, (1E,6E)-1-(4-dimethylamino-2-nitrophenyl)-7-(4-hydroxy-2-methoxyphenyl)hepta-1,6-diene-3,5-dione]"
10,205 to 215,"O=C(/C=C/c1ccc(O)cc1)CC(=O)/C=C/c1ccccc1-c1cnnn1Cc1ccccc1 [CU645, (1E,6E)-1-[2-(1-benzyl-1H-1,2,3-triazol-5-yl)phenyl]-7-(4-hydroxyphenyl)hepta-1,6-diene-3,5-dione]"
11,169 to 174,"CCOC(=O)Cn1nncc1-c1ccccc1/C=C/C(=O)CC(=O)/C=C/c1ccc(O)cc1 [CU647, (1E,6E)-1-[2-(1-ethoxycarbonylmethyl-1H-1,2,3-triazol-5-yl)phenyl]-7-(4-hydroxyphenyl)hepta-1,6-diene-3,5-dione]"
12,119 to 128,"O=C(/C=C/c1ccc(O)cc1)CC(=O)/C=C/c1ccccc1C=Cc1ccccc1 [CU672, (1E,6E)-1-(4-hydroxyphenyl)-7-(2-styrylphenyl)hepta-1,6-diene-3,5-dione]"
13,193 to 196,"O=C(/C=C/c1ccc(O)cc1)CC(=O)/C=C/c1cc(Cl)ccc1-c1ccccc1 [CU641, (1E,6E)-1-(4-chlorobiphenyl-2-yl)-7-(4-hydroxyphenyl)hepta-1,6-diene-3,5-dione]"
14,146 to 150,"O=C(/C=C/c1ccc(O)cc1)CC(=O)/C=C/c1ccccc1F [CU622, (1E,6E)-1-(2-fluorophenyl)-7-(4-hydroxyphenyl)hepta-1,6-diene-3,5-dione]"
